Test results reported in patent US8901158B2, “Treatment of bipolar disorder” (Isis Innovation Ltd., priority 2011, dated 2014).
pIC50: −log10 of the molar value.

Legend:
[1] = target: T1, human inositol monophosphatase (Homo sapiens, UniProt P29218); assay: in vitro IMPase inhibition, malachite green phosphate assay; format: biochemical; conditions: for pIC50: human IMPase, constant amount of inositol monophosphate
T1 construct: made in house; host or cells: E. coli BL21 (DE3) pLysS
T1 sequence (P29218 1-277): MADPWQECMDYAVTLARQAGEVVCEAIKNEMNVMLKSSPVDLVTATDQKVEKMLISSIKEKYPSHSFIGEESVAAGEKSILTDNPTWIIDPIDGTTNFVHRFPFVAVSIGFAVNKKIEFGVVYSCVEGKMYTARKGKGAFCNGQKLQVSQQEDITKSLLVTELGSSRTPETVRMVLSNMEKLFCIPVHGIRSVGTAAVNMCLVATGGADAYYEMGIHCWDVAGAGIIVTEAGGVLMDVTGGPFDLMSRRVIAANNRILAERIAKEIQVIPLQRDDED
From the text: Human inositol monophosphatase cDNA was ordered from Geneservice, Source Bioscience, Cambridge, UK. The cDNA was inserted into plasmid pRSET5a, which was then transformed into JM109 competent cells. These cells were allowed to multiply and the plasmid was then extracted from the cells. The plasmid was then transformed into expression bacteria, E.coli strain BL21 (DE3) pLysS. […] The next day the cells were lysed and the soluble fraction, which contained the enzyme, was collected. Purification was carried out in 3 stages. The soluble fraction was heated at 68° C. for 1 hour and then centrifuged. The supernatant was taken and run through a Q-sepharose column (Pharmacia). Different fractions were collected and assessed for activity. The active fractions were then passed through a Tricorn MonoQ 5/50 GL column (GE Healthcare, UK) for further purification.
Each enzymatic reaction using human inositol monophosphatase contained 0.00013 mg of enzyme (0.0673 mg/mL). The substrate inositol monophosphate (Alexis Chemicals) was diluted with the appropriate buffer to make up a concentration of 50 mM stock. The stock was then diluted with buffer to yield the following concentrations of substrate: 0 mM, 0.1 mM, 0.5 mM, 1.0 mM, 1.5 mM, 2.5 mM, 5 mM, 10 mM, 20 mM, 25 mM and 30 mM. From this 2 μL of substrate was added to each reaction well giving a tenfold dilution of substrate to 0 mM, 0.01 mM, 0.05 mM, 0.1 mM, 0.15 mM, 0.25 mM, 0.5 mM, 1 mM, 2 mM, 2.5 mM and 3 mM. The reaction buffer contained 1 mM EGTA, 150 mM KCl, 3 mM MgCl2, 0.5 ng/mL BSA, 50 mM Tri, HCl, pH 7.4 and 0.01% Triton X100.
A malachite green assay was used for the quantitative determination of free inorganic phosphate present at the end of the IMPase reaction. This involved dissolving 4.2% w/v ammonium molybdate in 4M hydrochloric acid. The Malachite Green itself was made up to 0.045% w/v concentration. From these stocks, a 3:1 malachite green:ammonium molybdate mixture was prepared and vortexed for thirty minutes. The malachite green forms a complex of ammonium molybdate:malachite green:inorganic phosphate in the presence of free inorganic phosphate. To each reaction plate, duplicate wells of a range of known phosphate concentrations were prepared within the concentration range of 0-300 μM with each well containing 20 μL of solution. The phosphate standards were made from serial dilutions of 1M potassium dihydrogen phosphate using double distilled H2O. To each well was added 180 μL of malachite green:ammonium molybdate mix. The colour produced by the reaction between the inorganic phosphate and malachite green:ammonium molybdate was proportional to the amount of phosphate present. The colour was allowed to develop for 15 min and then the plate was read on a TECAN Sunrise microplate reader at 595 nm wavelength.
For the reactions whose results are shown in FIG. 2, lithium (Sigma) was dissolved in double-distilled H2O and diluted appropriately to the concentration of 10 mM with 2 μL of lithium being added per well to yield a final well concentration of 1 mM. Stock concentrations of lithium were also made from this. L690330 was purchased from Sigma Chemicals, and was made up to a 1 mM stock concentration using H2O. From this stock the following concentrations were prepared using serial dilutions with water: 300 μM to 30 nM. These concentrations were used to produce a concentration-inhibition curve for the enzyme. Ebselen was purchased from BioFocus as a 10 mM stock in DMSO. […]

[2] = system: mice; assay: amphetamine-induced hyperactivity (animal model of mania); format: in vivo, mouse; conditions: ebselen i.p., d-amphetamine 4 mg/kg after 60 minutes, 60 to 120 minutes, p<0.001 (FIGS. 7, 8)
Protocol: Activity and monitoring evaluation of mice was also studied. Mice were given an i.p. injection with saline (control) or ebselen (1, 5 or 10 mg/kg) and placed in a 35×35 cm perspex arena where their location was recorded by the Ethovision videotracking system (Noldus, Wageningen, The Netherlands). After 60 minutes, the mice were injected with d-amphetamine (4 mg/kg) or control. The Ethovision system follows the centre of the body of the mouse and records its position according to the location of this point. Data analysis was performed by Ethovision software, and distances moved within each 5 minute interval were calculated and plotted. The total distance moved was computed for the time frame from 60 to 120 minutes following the beginning of data acquisition. Amphetamine-induced hyperactivity is used as an animal model of mania, and is sensitive to mood-stabilising drugs such as lithium.

[3] = system: inositol levels in mice brains; assay: ex vivo inositol levels in mice brains by 1H NMR; design: species or system mouse; conditions: 1 hour after intraperitoneal injection, p<0.001 (FIG. 6)
Protocol: Similar conclusions can be reached from the results shown in FIG. 6, in which inositol levels in mice brains were measured ex vivo using ^1H NMR spectroscopy. The results were obtained from brains removed from mice 1 hour after intraperitoneal injection either with ebselen or with a control.

[4] = system: mice; assay: rearing experiments with intracerebroventricular inositol; format: in vivo, mouse; conditions: ebselen 5 mg/kg i.p., after 60 minutes 5.5 μmol inositol intracerebroventricular (FIG. 10)
Protocol: In these rearing experiments, mice were given an intraperitoneal injection of control or ebselen (5 mg/kg), and after 60 minutes were given an intracerebroventricular injection of control or 5.5 μmol inositol.

[5] = system: mice; assay: rearing experiments (infrared beam breaks, open-field test); format: in vivo, mouse; conditions: p=0.023 (FIG. 9)
Protocol: Rearing experiments were also carried out as follows. Mice were allowed to move freely within a caged equipped with infrared beam lines placed at two heights.
Mice could only break the upper beams by rearing.

[6] = system: rats; conditions: cited from earlier work
[7] = system: inositol monophosphatase; assay: mouse ex vivo assay of IMPase activity in brain homogenate; conditions: 5 mg/kg i.p., CD1 male mice, 1 hour (FIG. 5)
Protocol: To determine the bio-availability of ebselen, a mouse ex vivo assay was used. In this assay mice were given an intraperitoneal (i.p.) injection of 5 mg/kg ebselen solublized in betacyclodextrin, according to the following procedure. A stock solution of 0.5 M ebselen in DMSO and a stock of 40% 2-Hydroxy propyl-beta-cyclodextrin (HPBCD) were made. A 3.5 mM solution of ebselen (from 0.5 M stock) was made into 40% HPBCD and finally, to obtain the concentration of 350 μM ebselen, a 1 in 10 dilution was carried out. A control solution was made containing the same dilution of DMSO and HPBCD. The volume of drug/vehicle injected i.p. into the mouse was 1 ml (for the animals dosed with ebselen this is approximately 5 mg/kg assuming each mouse weighs about 20 g). CD1 male mice, weighing approximately 20 g were used. The animals were dosed for one hour with either drug or vehicle before being killed by cervical dislocation. The brains were quickly dissected out and frozen in liquid nitrogen. […]
The protein concentration of each brain homogenate was determined and a stock of 2.5 mg of protein was made from the homogenate and stored. […] The intensity of the green color formed was measured at 595 nm.

[8] = target: T2, bovine IMPase (Bos taurus, UniProt P20456); conditions: reported value; cited from earlier work
T2 sequence (P20456 1-277): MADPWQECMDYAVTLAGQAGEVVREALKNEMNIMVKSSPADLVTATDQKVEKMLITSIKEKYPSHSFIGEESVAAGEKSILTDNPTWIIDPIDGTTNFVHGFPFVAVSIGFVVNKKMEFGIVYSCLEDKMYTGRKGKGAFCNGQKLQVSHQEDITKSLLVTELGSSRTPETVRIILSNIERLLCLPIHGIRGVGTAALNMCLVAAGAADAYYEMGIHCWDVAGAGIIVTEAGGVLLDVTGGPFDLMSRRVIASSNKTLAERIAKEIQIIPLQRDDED

SMILES | in vitro inhibition of IMPase ([1]; 30 μM compound (FIG. 4)) | pIC50 [1] | level of amphetamine-induced hyperactivity [2] | inositol levels in the brain versus control [3] | effects of ebselen on suppressing rearing behaviour after inositol injection [4] | number of beam breaks (rearing) during the open-field test [5] | LD50 [6] | amount of phosphate detected (IMPase activity in brain homogenate) compared to the control [7] | mode of inhibition ([1]; purified human IMPase, various ebselen and substrate concentrations (FIG. 3)) | pIC50 [8]
O=c1c2ccccc2sn1-c1ccccc1 [2-phenyl-1,2-benzisothiazol-3(2H)-one] | inhibition of IMPase is also achieved | 4.46 |  |  |  |  |  |  |  | 
O=c1c2ccccc2[se]n1-c1ccccc1 [Ebselen, 2-phenyl-1,2-benzisoselenazol-3(2H)-one] |  | ~5.70 | reduced level of amphetamine-induced hyperactivity | significantly lower | significantly reduced | significantly reduced | greater than 1000 mg/kg | significantly lower | non-competitive mode of inhibition | 
CC(Oc1ccc(O)cc1)(P(=O)(O)O)P(=O)(O)O [L690330] |  | 5.82 |  |  |  |  |  |  |  | ~6.52
